Source: patent US20250261660A1, “FORMULATIONS AND METHODS FOR USE IN OXIDATION TREATMENT APPLICATIONS” (priority 2022, published 2025)

System: microbial control in water
Assay: Microbial control in water at slightly alkaline pH, comparison of oxidants
Assay type: cell-based
Source text: (§1) In some embodiments, microbial control in water at slightly alkaline pH was compared between peracetate oxidant, chlorine bleach, peracetic acid and chlorine dioxide. Alkaline pH is encountered in a variety of applications where microbial control and sanitization is needed, including pulp and paper processing.
as §1, with “water treatment” for “pulp”, “chill tanks in poultry processing, a type of food” for “paper”

| SMILES | performance as antimicrobial disinfectant |
| --- | --- |
| OCl [chlorine bleach, hypochlorite] | lowest performance |
| [O][Cl+][O-] [chlorine dioxide] | performed well |
| CC(=O)OO [peracetic acid] | lowest performance |
